From patent US4665224A, “Ester of (+) 6-methoxy-α-methyl-2-naphthalene acetic acid having mucosecretolytic, anti-inflammatory, analgesic, antipyretic activity, a process for its preparation and pharmaceutical compositions thereof” (priority 1984, dated 1987) come the findings set out here.

For one data set, the system named is bronchial mucus. In words: Bronchosecretagogue activity, quantitative evaluation of the rabbit bronchial secretion. The conditions noted are these: for Percent increase of the bronchial mucus: second 4 h period versus first; for bronchosecretagogue / mucolytic activity: oral, result in words. The format is in vivo, rabbit (brown, male). The text has this:
Method of quantitative evaluation of the rabbit bronchial secretion according to Scuri R. et al. Boll. Chim. Farm. 119, 181-7; 1980.
Adult male brown rabbits (2.8-3.5 kg of body weight) to which a T shaped tracheal cannula is applied by surgical operation, as described in the above cited bibliographic reference, are used.
To the cannula, a container for periodical collection of the bronchial secretion is applied.
The study of mucoproduction, started on the fourth day after the operation, is divided into two periods (of 4 hours each), for collecting and measuring the secreted mucus. The action of the test drug is tested by administering it orally at the beginning of the second period of mucus collection and evaluating the percent increase in the mucus production (as measured gravimetrically) in the second period in comparison with the first period.

In data set [1] the test system is phenylquinone abdominal contractions. As to the kind of experiment: Analgesic activity, method of phenylquinone (abdominal contractions). Particulars: mouse, oral; for ED50: 20 min, 30 minutes before phenylquinone, contractions during 20 minutes, read-out: ED50 in mg/kg os. The format is in vivo, mouse (Swiss albine, female). Here is the method: Female Swiss albine mice (20-25 g), fasting since 2 hours are employed.
The test drug is administered orally 30 minutes before endoperitoneal injection of phenylquinone (0.08 mg/mouse).
The characteristic abdominal contractions are counted individually during a 20 minutes period.

Data set [2] deals with carrageenin induced oedema. As to the kind of experiment: Antiphlogistic activity, carrageenin induced oedema. Type of data set: in vivo, rat (Wistar albine, female). The conditions noted are these: 3 h; rat, oral, one hour before carrageenin; paw volume at three hours; read-out: ED50 in mg/kg os. As for the experimental part:
Method of the carrageenin induced oedema according to Winter C. A. et al.--proc. Soc. Exp. Biol. Med--111, 544-7, 1962.
Female Wistar albine rats (120-160 grams of body weight) are utilized.
The test drug is administered orally one hour before injection of a carrageenin water suspension into the right hind paw (1%, injected volume […]).
The volume of the injected paw is recorded simultaneously with the carrageenin injection and three hours after the same by a plethysmometer (U. Basile, mod. 7150-Comerio, Varese).

In another data set the test system is yeast induced pyrexia. In words: Antipyretic activity, yeast induced pyrexia in the rat. Type of data set: in vivo, rat (Wistar albine, female). Particulars: for ED50: Rattus norvegicus, po, read-out: ED50 in mg/kg os. As for the experimental part: Method of yeast induced pyrexia in the rat.
Female Wistar albine rats, weighing 100-140 g, are employed. Animals having a rectal basal temperature from 36° to 37° C. are selected.
The testing substances are administered orally simultaneously with the pyretic agent (dry brewer's yeast suspended in water at 20% concentration,administered volume 15 ml/kg, subcutaneously) to groups of 5 animals per dose.
After 4,5,6,7 and 24 hours from the treatment, the rectal temperature of the animals is recorded by an Ellab RM6 probe, connected to an Ellab mod. TE-3 thermometer.
The activity of the drugs is evaluated by utilizing a temperature index which is given by the algebraic sum of the differences in the rectal temperature between the measured values at different times and the basal value.

A short description of another data set: in vivo. Particulars: mouse, in vivo, po. As for the experimental part:
(§1) Method for studying the lethal dose 50 (LD50) in the mouse after a single administration.
(§2) Groups of 10 Swiss albine, female, adult mice (20-22 grams of body weight) fasting from the evening preceding the test, are treated orally with varying doses of the test drup suspended into hydroxyethylcellulose (0.5% w/v.)
(§3) Thereafter, the animals are fed again.

Another data set has as its system mouse. As to the kind of experiment: in vivo. Particulars: oral, result in words. Here is the method:
as §1, §2, §3

The subject of data set [3] is gastric lesions or submucosa hemorrhages. As to the kind of experiment: Gastric tolerability, gastric ulcerogenesys by repeated drug administrations. Type of data set: in vivo, rat (Wistar albine, female). Particulars: rat, oral for 5 days, result in words. As for the experimental part:
Method of gastric ulcerogenesys by repeated drug administrations.
Fed female Wistar albine rats (140-160 g of initial body weight) are used.
The test drug is administered orally for 5 days. At the end of the experiment, the rat's stomach is withdrawn, it is dissected along the lesser curvature, washed and observed in order to disclose the presence of either gastric lesions or manifest submucosa hemorrhages.

[4] abbreviates: listed as compound of the present invention.

Turning to `COc1ccc2cc([C@H](C)C(=O)O)ccc2c1` [(+)6-methoxy-α-methyl-2-naphthalene acetic acid, reference compound], the “Percent increase of the bronchial mucus” value in the data set on bronchial mucus (300 mg/kg os.) was found to be 0%. Besides, the values for the ED50 (in data set [1]; in data set [2]; in the data set with yeast induced pyrexia) were 18.5 mg/kg, 35 mg/kg and 14 mg/kg, respectively.
The term LD50 denotes the dose expected to kill half of the subjects tested. With `COc1ccc2cc([C@H](C)C(=O)OCC3=CCC(C(C)(C)O)CC3)ccc2c1` (single isomer, unassigned; (+)) [CO/1446], the “Percent increase of the bronchial mucus” value in the data set on bronchial mucus (600 mg/kg os.) amounted to 32%. Further, the “bronchosecretagogue / mucolytic activity” value in the data set on bronchial mucus (setting [4]) is “has bronchosecretagogue activity in the rabbit”; in the data set on bronchial mucus (listed as ester of formula (I)), “marked mucolytic activity of the bronchial secretion”. Further, the ED50 in data set [1] is 3.9 mg/kg; in data set [2], 30 mg/kg; with yeast induced pyrexia it was 30 mg/kg. Moreover, the “analgesic activity versus (+)6 methoxy-α-methyl-2-naphthalene acetic acid” value in data set [1] (result in words) is “significantly more active”. Besides, in the data set “in vivo”, the LD50 at 336 h stood at 4000 mg/kg. In the data set on mouse, the acute toxicity result is given as “very low acute toxicity”. Besides, the results for the gastric tolerability entry in data set [3] (setting [4]), in data set [3] (listed as ester of formula (I)) and in data set [3] (listed as such compound) were “well tolerated by the gastric mucose of the rat”, “very good gastric tolerability” and “better tolerated than (+)6-methoxy-α-methyl-2-naphthalene acetic acid”, respectively. In addition, the antipyretic activity entry in the data set on yeast induced pyrexia (rat, oral, result in words) is given as “good antipyretic activity, though lower than the control”.
